Measurements as given in BindingDB's records for doi:10.1016/S0960-894X(01)80770-8 (1993).
Counter-ions that a name gives are not always drawn.

How the values were obtained:
[1] = molecular target: S-adenosylmethionine decarboxylase proenzyme (Escherichia coli) (UniProt P0A7F6); test: Compound was evaluated for its inhibitory activity against AdoMet-DC from Escherichia coli
[2] = Compound was evaluated to inactivate the bacterial AdoMet-DC

S-adenosylmethionine decarboxylase proenzyme (Escherichia coli), sequence (P0A7F6 whole entry, looked up): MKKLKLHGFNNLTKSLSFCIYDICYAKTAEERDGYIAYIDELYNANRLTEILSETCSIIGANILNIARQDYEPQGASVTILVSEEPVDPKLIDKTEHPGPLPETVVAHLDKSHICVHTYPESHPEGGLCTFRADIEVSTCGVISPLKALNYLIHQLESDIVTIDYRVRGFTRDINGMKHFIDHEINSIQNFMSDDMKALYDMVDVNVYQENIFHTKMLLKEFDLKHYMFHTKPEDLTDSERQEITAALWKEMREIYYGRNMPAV

SMILES	IC50 [1] [µM]	Ki [2] [µM]
N#CC(N)CCSC[C@H]1O[C@@H](n2cnc3c(N)ncnc32)[C@H](O)[C@@H]1O (stereo not given in full)	179	–
N#CC(N)CCCSC[C@H]1O[C@@H](n2cnc3c(N)ncnc32)[C@H](O)[C@@H]1O (stereo not given in full)	205	–
C[S+](CCC(N)C#N)C[C@H]1O[C@@H](n2cnc3c(N)ncnc32)[C@H](O)[C@@H]1O (stereo partly drawn) [2-amino-4-({[(2S,3S,4R)-5-(6-amino-9H-purin-9-yl)-3,4-dihydroxyoxolan-2-yl]methyl}(methyl)-sulfanyl)butanenitrile dihydrobromide]	9	31.1
C[S+](CCCC(N)C#N)C[C@H]1O[C@@H](n2cnc3c(N)ncnc32)[C@H](O)[C@@H]1O (stereo partly drawn) [2-amino-5-({[(2S,3S,4R)-5-(6-amino-9H-purin-9-yl)-3,4-dihydroxyoxolan-2-yl]methyl}(methyl)-sulfanyl)pentanenitrile dihydrobromide]	50	–
